No end group written: not given here.
How the values were obtained:
[1] = system: wild-type Flp-In T-REx 293 cells; assay: Calcium elevation assay in wild-type Flp-In T-REx 293 cells; format: cell-based, human; conditions: for Ca2+ elevation in wild-type cells: wild-type Flp-In T-REx 293 cells, concentration-response, N = 3
Description: (§3) The Flp-In T-REx 293 human cell line (Thermofisher Scientific, Waltham, MA, USA), based on HEK293 cells, was cultured at 37 °C in 5% CO2 in an air‐ventilated humidified incubator according to manufacturer’s protocol, in high glucose Dulbecco’s Modified Eagle Medium (Biowest, Nuaillé, France) supplemented with 10% FBS, 1% Glutamax (Gibco), 10 mM HEPES (VWR LifeScience, Radnor, PA, USA), 100 U/mL penicillin G (Sigma Chemical Co., St. Louis, MO, USA), 80 U/mL streptomycin (Sigma), blasticidin (15 µg/mL) (InvivoGen, San Diego, CA, USA). The host cell line was maintained with zeocin (100 µg/mL) (InvitroGen, Carlsbad, CA, USA) and the transfected cell lines with hygromycin B (100 µg/mL) (InvitroGen). The experimental medium, the HEPES-buffered medium, (HBM: 137 mM NaCl, 5 mM KCl, 1.2 mM MgCl2, 0.44 mM KH2PO4, 4.2 mM NaHCO3, 1 mM CaCl2, 10 mM glucose, 20 mM HEPES, adjusted to pH 7.4 with NaOH), was used in all laboratory experiments. For the calcium elevation assay, HBM was supplemented with 1 mM probenecid [4-(dipropylsulfamoyl)benzoic acid] (Sigma) and 0.2% lipid-free bovine serum album.
(§4) Calcium measurements were performed in triplicate or quadruplicate. […] Non-linear curve-fitting were conducted with Prism 5 (GraphPad Software Inc., La Jolla, CA, USA) using the following equation: Y=basal+responsemax-basal/1+10^logEC50-X

CiOX [2] = format: cell-based; conditions: 100 µM
Description: as §3, §4

CiOX [3] = biological target: T1, CiOX (Ciona intestinalis, UniProt F6YII5); format: cell-based; conditions: CiOX-eGFP-expressing Flp-In T-REx 293 cells
T1 sequence (F6YII5 1-372): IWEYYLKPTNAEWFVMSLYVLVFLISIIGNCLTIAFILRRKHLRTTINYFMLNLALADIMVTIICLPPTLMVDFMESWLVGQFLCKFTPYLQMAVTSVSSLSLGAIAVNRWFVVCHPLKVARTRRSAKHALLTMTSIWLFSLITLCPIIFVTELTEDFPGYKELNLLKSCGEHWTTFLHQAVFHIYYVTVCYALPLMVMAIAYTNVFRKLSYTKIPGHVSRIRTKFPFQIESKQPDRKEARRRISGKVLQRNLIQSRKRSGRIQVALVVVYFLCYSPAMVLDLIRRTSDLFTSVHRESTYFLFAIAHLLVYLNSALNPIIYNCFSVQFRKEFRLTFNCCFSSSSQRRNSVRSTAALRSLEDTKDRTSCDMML
Description: as §3, §4

CiOX [4] = assay: Inhibition of human orexin peptide-mediated Ca2+ responses in CiOX-expressing cells; format: cell-based, Ciona intestinalis; conditions: agonist orexin-A and -B 1 µM; inhibitor 1 µM added 30 min before; mean ± S.E.M., N = 3-4
Description: Figure 7 The sensitivity of the human endogenous orexin peptide (1 µM) -mediated Ca^2+ responses to inhibitors (1 µM) in CiOX-expressing cells. The responses were normalized to the basal + inhibitor (0%) and the control agonist peptide response (in the absence of inhibitor; 100%) separately for each independent experiment before averaging. Data presented as mean ± S.E.M. N = 3–4. The significances are given in relation to the agonist control.
Intracellular calcium elevation is the apparent response upon orexin receptor activation in many cell types. The calcium elevation assay was conducted as previously described. Cells, 1 × 10^5 per well, were plated on polyethyleneimine (25 μg/mL, 1 h, 37 °C)-coated black, clear-bottom, half-area 96-well plates (Greiner). After 24 h, 100 ng/mL doxycycline was added onto the cells and incubated for another 24 h before loading the cells with FLIPR Calcium 5 Assay Kit (Molecular Devices, Sunnyvale, CA, USA) dissolved in and diluted with HBM and supplemented as described above. Cells were incubated for 1 h with the loading dye, before running the assay in FlexStation 3 fluorescence plate reader (Molecular Devices). Inhibitors were added manually at the midpoint of the probe incubation (30 min). Intracellular Ca^2+ levels were measured as fluorescent changes for 150 s (of which 30 s baseline prior to stimulation) with excitation at 485 nm, emission at 525 nm (recording every 1.3 s) at 37 °C.
The data were normalized in each experiment to the control response and then averaged between experiments by calculation of mean ± S.E.M. The N denotes the number of independent experiments and was always at least 3. Paired two-tailed t-test was used for comparison. Significances were as follows: * P < 0.05, ** P < 0.01, *** P < 0.001.

[5] = system: allatotropin receptor of Tribolium castaneum; conditions: cited from earlier work
Text: The data presented in this study strongly support the notion that this orphan C. intestinalis receptor, here called CiOX, is an orexin-like receptor. Despite the sequence divergence, the (proposed) binding cavity of hOX2 and CiOX are highly similar.

[6] = system: wild-type Flp-In T-REx 293 cells; assay: Binding of TAMRA-orexin-A (fluorescence microscopy) in wild-type Flp-In T-REx 293 cells; parameters: species or system human; conditions: 30 nM; 10-minute incubation
Description: (§1) We have previously observed that the N-terminus of orexin-A can tolerate additions without apparent loss of activity on orexin receptors (Kukkonen, unpublished) and it has been reported that fluorescently labelled orexin-A can be used as probe for hOX1/2[56].
(§2) The cells were seeded on polyethyleneimine-coated 25 mm circular glass coverslips (Menzel-Gläser, Braunschweig, Germany). Twenty-four hours after seeding, cells were treated with doxycycline (100 ng/mL) and incubated for another 24 h. Then, the coverslip was washed once with HBM, before mounting in the microfluorometric experiment chamber. The imaging system, composed of the Sutter Lambda DG-4 xenon light source/filter shifter (Sutter Instrument Company, Novato, CA, USA), Nikon TE2000 epifluorescence microscope (Nikon, Tokyo, Japan), Nikon Apo TIRF 60×/1.49 oil immersion objective and Andor iXon 885 electron-multiplying charge-coupled device camera (Oxford Instruments, Abingdon, Oxfordshire, UK), was under the control of the Nikon NIS Elements AR software. Images were alternately acquired at 480/30 nm excitation/510 nm dichroic mirror/535/40 nm emission for eGFP fluorescence and at 540/25 nm excitation/565 nm dichroic mirror/605/55 nm emission for TAMRA fluorescence. […]

CiOX [7] = biological target: T1, CiOX; assay: Binding of TAMRA-orexin-A (fluorescence microscopy) in CiOX-eGFP-expressing cells; conditions: 30 nM
Description: as §1
The cells were seeded on polyethyleneimine-coated 25 mm circular glass coverslips (Menzel-Gläser, Braunschweig, Germany). Twenty-four hours after seeding, cells were treated with doxycycline (100 ng/mL) and incubated for another 24 h. Then, the coverslip was washed once with HBM, before mounting in the microfluorometric experiment chamber. The imaging system, composed of the Sutter Lambda DG-4 xenon light source/filter shifter (Sutter Instrument Company, Novato, CA, USA), Nikon TE2000 epifluorescence microscope (Nikon, Tokyo, Japan), Nikon Apo TIRF 60×/1.49 oil immersion objective and Andor iXon 885 electron-multiplying charge-coupled device camera (Oxford Instruments, Abingdon, Oxfordshire, UK), was under the control of the Nikon NIS Elements AR software. Images were alternately acquired at 480/30 nm excitation/510 nm dichroic mirror/535/40 nm emission for eGFP fluorescence and at 540/25 nm excitation/565 nm dichroic mirror/605/55 nm emission for TAMRA fluorescence. A pair of images was acquired once per minute or once per every five minutes depending on the incubation time; i.e., for a longer incubation 5 min was used to avoid potential bleaching. All the additions were made by direct pipetting into the chamber. Experiments were carried out at room temperature. 30 nM TAMRA-orexin-A was used.

hOX1 = assay: Binding of TAMRA-orexin-A (fluorescence microscopy) in hOX1-eGFP-expressing cells; parameters: species or system human; conditions: 30 nM
Description: as §1, §2

[8] = biological target: Ciona intestinalis putative orexin receptor fused to eGFP (Ciona intestinalis)
[9] = room temperature, red fluorescence

Nc1ncnc2c1ncn2[C@@H]1O[C@H](COP(=O)(O)OP(=O)(O)OP(=O)(O)O)[C@@H](O)[C@H]1O [ATP]
Ca2+ response to positive control in wild-type cells ([1]; 100 µM): robust Ca^2+ response
Ca2+ response to positive control in CiOX-expressing cells (CiOX [2]): robust Ca^2+ response

COc1ccc(-c2cccc(C(=O)N(C)C)c2)cc1S(=O)(=O)Nc1cccc(NCCNC(=O)c2cccc(C)c2)c1 [Nag 26, N-[2-[3-[[5-[3-(dimethylcarbamoyl)phenyl]-2-methoxyphenyl]sulfonylamino]anilino]ethyl]-3-methylbenzamide]
Ca2+ elevation in wild-type cells [1]: induced no Ca^2+ elevation
Ca2+ elevation in CiOX receptor-expressing cells (CiOX [3]): induced no Ca^2+ elevation

Cc1nc2ccc(NC(=O)Nc3ccnc4cccnc34)cc2o1 [SB-334867]
Inhibition of Ca2+ responses to CiOX stimulation with orexin-A and -B (CiOX [4]): much weaker effect

Cn1c(SCC(=O)N2CCC[C@H]2C(=O)Nc2ccccc2-c2ccccc2)nc2ccccc21 [TCS 1102, (2S)-1-[2-(1-methylbenzimidazol-2-yl)sulfanylacetyl]-N-(2-phenylphenyl)pyrrolidine-2-carboxamide]
Inhibition of Ca2+ responses to CiOX stimulation with orexin-A and -B (CiOX [4]): nearly fully blocked the response

CNC(=O)[C@@H](c1ccccc1)N1CCc2cc(OC)c(OC)cc2[C@@H]1CCc1ccc(C(F)(F)F)cc1 [almorexant, (2R)-2-[(1S)-6,7-dimethoxy-1-[2-[4-(trifluoromethyl)phenyl]ethyl]-3,4-dihydro-1H-isoquinolin-2-yl]-N-methyl-2-phenylacetamide]
Inhibition of the allatotropin receptor of Tribolium castaneum [5]: not inhibited
Inhibition of Ca2+ responses to CiOX stimulation with orexin-A and -B (CiOX [4]): nearly fully blocked the response

M. sexta allatotropin: Manduca sexta allatotropin from Bachem (GFKNVEMMTARGF)
Ca2+ elevation in wild-type cells [1]: induced no Ca^2+ elevation
Ca2+ elevation in CiOX receptor-expressing cells (CiOX [3]): induced no Ca^2+ elevation

TAMRA-orexin-A: 5-/6-carboxytetramethylrhodamine (TAMRA)-labelled human orexin-A, custom synthesis (QPLPDCCRQKTCSCRLYELLHGAGNHAAGILTL; ends and bridges not checked; also: TAMRA label, place not given here; UniProt O43612 34-66, looked up)
Binding to wild-type Flp-In T-REx 293 cells [6]: did not bind
Internalization (intracellular red fluorescence) in CiOX receptor-expressing cells (CiOX [7]): did not observe this
Time for which the bound fluorescence intensity remained stable in CiOX-eGFP-expressing cells (CiOX [7]; room temperature): at least 30 min
Binding to the plasma membranes of CiOX-eGFP-expressing cells (CiOX [7]; [9]): bound to the plasma membranes of the CiOX receptor-expressing cells
Internalization (intracellular red fluorescence) in hOX1 receptor-expressing cells (hOX1): intracellular red fluorescence suggesting internalization
Binding to the plasma membranes of hOX1-eGFP-expressing cells (hOX1; [9]): bound to the plasma membranes of OX1 cells quickly after the addition

[(1R)-1-[(3S,6S,9S,12S,18R,21S,22R)-21-acetamido-18-benzyl-3-[(1R)-1-methoxyethyl]-4,9,10,12,16-pentamethyl-15-methylidene-2,5,8,11,14,17,20-heptaoxo-22-propan-2-yl-1,19-dioxa-4,7,10,13,16-pentazacyclodocos-6-yl]-2-methylpropyl] (2S,3R)-3-hydroxy-4-methyl-2-(propanoylamino)pentanoate [UBO-QIC]
Inhibition of Ca2+ responses to CiOX stimulation with orexin-A and -B (CiOX [4]): nearly fully inhibited

human orexin-A (peptide)
EC50 of the Ca2+ elevation in CiOX-eGFP-expressing Flp-In T-REx 293 cells (CiOX-specific response, wild-type response subtracted) [8]: 225 nM

orexin-A15–33: The 19-amino acid-long C-terminal fragment of orexin-A (RLYELLHGAGNHAAGILTL; ends and bridges not checked)
Ca2+ elevation in wild-type cells [1]: weakly elevated Ca^2+
EC50 of Ca2+ elevation (CiOX [3]; doxycycline 100 ng/mL 24 h, 37 °C, mean ± S.E.M., N = 3): no saturation was reached

Reference: article PMC10987541, “Characterization of a putative orexin receptor in Ciona intestinalis sheds light on the evolution of the orexin/hypocretin system in chordates” (Scientific Reports, 2024)
